Legend:
[1] = logP (physical data, Table 1); assay type: physicochemical; details: footnote a) not given
maize cv. “Pioneer” = test: Post-emergence test/greenhouse, damage to maize; assay type: in vivo; details: Table A3
Protocol: (§1) The active compound or safener components are in each case dissolved in a little solvent and then—if appropriate after addition of an emulsifier—diluted with water to the desired concentration. Preferably, an aqueous spray liquor is prepared using 0.1% of the additive Renex-36. Acetone and N,N-dimethylformamide are used as preferred solvents.
(§2) The test plants are grown under controlled conditions (temperature, light, atmospheric humidity) in a greenhouse. The test plants are sprayed when they have reached a height of 5-15 cm. The concentration of the spray liquor is chosen such that the particular amounts of active compound desired are applied in 500 l of water/ha.
(§3) After spraying, the pots with the test plants are kept in a greenhouse chamber under controlled conditions (temperature, light, atmospheric humidity) until the test has ended. About three weeks after the application, the degree of damage to the crop plants is rated in % damage in comparison to the development of the untreated control.
(§4) 0% =no damage (like untreated control)
(§5) 100% =total destruction/damage
(§6) Active compounds, application rates, test plants and results are shown in the tables below, the terms being used in the tables being as defined below:
maize=maize cv. “Pioneer”
(§7) a.i.=active ingredient=active compound/safener

Chenopodium = test: Post-emergence test/greenhouse, damage to Chenopodium; assay type: in vivo; details: Table A3
Protocol: as §1, §2, §3, §4, §5, §6, §7

Amaranthus = test: Post-emergence test/greenhouse, damage to Amaranthus; assay type: in vivo; details: Table A3
Protocol: as §1, §2, §3, §4, §5, §6, §7

wheat cv. “Orestis” = test: Post-emergence test/greenhouse, damage to wheat; assay type: in vivo
Protocol: (§8) The active compound or safener components are in each case dissolved in a little solvent and then—if appropriate after addition of an emulsifier—diluted with water to the desired concentration. […] Acetone and N,N-dimethylformamide are used as preferred solvents. The test plants are grown under controlled conditions (temperature, light, atmospheric humidity) in a greenhouse. […] After spraying, the pots with the test plants are kept in a greenhouse chamber under controlled conditions (temperature, light, atmospheric humidity) until the test has ended. […] The figures denote: 0% =no damage (like untreated control) […] Active compounds, application rates, test plants and results are shown in the tables below, the terms being used in the tables being as defined below: wheat=wheat cv. “Orestis”, barley=barley cv. “Coronar” a.i.=active ingredient=active compound/safener

barley cv. “Coronar” = test: Post-emergence test/greenhouse, damage to barley; assay type: in vivo
Protocol: as §8

[2] = Table A1: sown 31 March, application 19 April (20 days), 125 g of a.i./ha
[3] = Table A1: sown 31 March, application 19 April (20 days), 250 g of a.i./ha
[4] = Table A1: sown 31 March, application 19 April (20 days), 500 g of a.i./ha
[5] = Table A2: sown 12 April, application 10 May (4 weeks), 125 g of a.i./ha
[6] = Table A2: sown 12 April, application 10 May (4 weeks), 250 g of a.i./ha
[7] = Table A2: sown 12 April, application 10 May (4 weeks), 500 g of a.i./ha

## CCN1CCCN(Cc2c(S(C)(=O)=O)ccc(C(=O)C3C(=O)CCCC3=O)c2Cl)C1=O [Example I-12]
[1]
  logP: logP = 1.96^a)

## CN1CCCN(Cc2c(S(C)(=O)=O)ccc(C(=O)C3C(=O)CCCC3=O)c2Cl)C1=O [Example I-11]
[1]
  logP: logP = 1.73^a)

## COc1nn(Cc2cc(C(F)(F)F)ccc2C(=O)C2C(=O)CCCC2=O)c(=O)n1C [Example I-5]
Maize cv. “Pioneer”; 30 g of a.i./ha
  Damage Maize (in %): 30%
Maize cv. “Pioneer”; 60 g of a.i./ha
  Damage Maize (in %): 60%
Maize cv. “Pioneer”; 125 g of a.i./ha
  Damage Maize (in %): 70%
Chenopodium; 30 g of a.i./ha
  Damage Chenopodium (in %): 100%
Chenopodium; 60 g of a.i./ha
  Damage Chenopodium (in %): 100%
Chenopodium; 125 g of a.i./ha
  Damage Chenopodium (in %): 100%
Amaranthus; 30 g of a.i./ha
  Damage Amaranthus (in %): 100%
Amaranthus; 60 g of a.i./ha
  Damage Amaranthus (in %): 100%
Amaranthus; 125 g of a.i./ha
  Damage Amaranthus (in %): 100%
[1]
  logP: logP = 2.35^a)

## CSc1nn(Cc2cc(C(F)(F)F)ccc2C(=O)C2C(=O)CCCC2=O)c(=O)n1C [Example I-15]
Wheat cv. “Orestis”; [2]
  Damage Wheat (in %) (5 days): 30%
  Damage Wheat (in %) (20 days): 20%
Wheat cv. “Orestis”; [3]
  Damage Wheat (in %) (5 days): 40%
  Damage Wheat (in %) (20 days): 20%
Wheat cv. “Orestis”; [4]
  Damage Wheat (in %) (5 days): 40%
  Damage Wheat (in %) (20 days): 30%
Wheat cv. “Orestis”; [5]
  Damage Wheat (in %) (5 days): 20%
  Damage Wheat (in %) (20 days): 30%
Wheat cv. “Orestis”; [6]
  Damage Wheat (in %) (5 days): 35%
  Damage Wheat (in %) (20 days): 40%
Wheat cv. “Orestis”; [7]
  Damage Wheat (in %) (5 days): 35%
  Damage Wheat (in %) (20 days): 50%
Barley cv. “Coronar”; [2]
  Damage Barley (in %) (5 days): 40%
  Damage Barley (in %) (20 days): 10%
Barley cv. “Coronar”; [3]
  Damage Barley (in %) (5 days): 50%
  Damage Barley (in %) (20 days): 15%
Barley cv. “Coronar”; [4]
  Damage Barley (in %) (5 days): 50%
  Damage Barley (in %) (20 days): 20%
Barley cv. “Coronar”; [5]
  Damage Barley (in %) (5 days): 35%
  Damage Barley (in %) (20 days): 25%
Barley cv. “Coronar”; [6]
  Damage Barley (in %) (5 days): 35%
  Damage Barley (in %) (20 days): 30%
Barley cv. “Coronar”; [7]
  Damage Barley (in %) (5 days): 35%
  Damage Barley (in %) (20 days): 50%
[1]
  logP: logP = 2.59^a)

## COc1c(C(=O)c2cnoc2C2CC2)ccc(Cl)c1CN1CCN(C)C1=O [Example I-14]
[1]
  logP: logP = 2.46^a)

Source: patent US20040132619A1, “Selective substituted aryl ketone and safener based herbicides” (priority 2001, published 2004)
